Where two headings read alike, the source gives them in different places. Marks after values point to notes of the source that are not given here.
How the values were obtained:
[1] = biological target: T1, DM EGFR (DoubleMutantEGFR, L828R/T790M) (Homo sapiens, UniProt P00533, L858R/T790M); assay: Inhibition of DM EGFR kinase activity (ADP-Glo); format: biochemical; details: for IC50: inhibition of kinase activity, EGFR DM (L828R/T790M); for SI, IC50(WT)/IC50(DM): selectivity index, kinase EGFR WT vs EGFR DM
T1 construct: purchased SignalChem
Protocol: (§1) To assess IC50 values of the compounds disclosed herein, a biochemical assay of inhibition of kinase activity in a non-cellular system and a functional cellular anti-proliferation assay were used.
(§2) To assess inhibition of WT EGFR (Wild-Type EGFR), DM EGFR (DoubleMutantEGFR, L828R/T790M) kinase activity, SignalChem kinase system and ADP-Glo™ Kinase Assay (V9102, Promega) detection kit were used.
(§3) The measurements were carried out in a 25 μL reaction volume using a 96-well plate. […] The solution of 0.5 mg/mL peptide substrate and 50 μM ATP in the same buffer were added; the solution was incubated for 180 minutes at 37° C. To detect the amount of ATP taken up during the kinase reaction, the ADP Glo Detection Kit (V9102, Promega) was used. The luminescence was measured with the Infinite M200Pro plate spectrophotometer (Tecan, Switzerland). IC50 values were calculated using Magellan 7.2 software (Tecan, Switzerland) approximating experimental points by four-parameter logistic model with the optimization by Levenberg-Marquardt (Table 14).

[2] = biological target: T2, WT EGFR (Wild-Type EGFR) (Homo sapiens, UniProt P00533); assay: Inhibition of WT EGFR kinase activity (ADP-Glo); format: biochemical
T2 construct: purchased SignalChem
Protocol: as §1, §2, §3

[3] = tested on: H1975 (lung adenocarcinoma, DM, L828R/T790M); assay: Antiproliferative activity on H1975 cells (Alamar Blue); format: cell-based; details: for IC50: Homo sapiens, NCI-H1975, H1975 cells; for SI IC50(A549)/IC50(DM): selectivity index, A549 vs H1975 cells
Protocol: (§4) Antiproliferative activity of EGFR inhibitors (Tables 15 and 16) was measured in cell-based bioassay on continuous epithelial cell cultures: A549 (lung adenocarcinoma, ATCC® CRM-CCL-185™—WT), HCC827 (lung adenocarcinoma, ATCC® CRL-2868™—SM (SingleMutantEGFR, exon19delE746-A750)) and H1975 (lung adenocarcinoma, ATCC® CRL-5908™—DM (DoubleMutantEGFR, L828R/T790M)) using cell viability reagent Alamar Blue (ThermoFisher, # DAL1100). Cells were cultured in 10% FBS-supplemented (Gibco, #16140071) RPMI-1640 (PanEco, S330p) for at least 1 passage after thawing, washed with PBS and passaged in 96-well culture plates (3599, Corning) with RPMI-1640 growth medium supplemented with 2% FBS in an amount of 5*10^3 cells/well for A549, 10*10^3 cells/well for HCC827 and 15*10^3 cells/well for H1975 in 100 μL, and incubated at 37° C. in an incubator (Thermo Forma, USA) under 5% of CO2 for 16-18 h for cell attachment.
(§5) The test compounds were dissolved in DMSO in the selected range of concentrations and transferred to RPMI-1640 medium (PanEco, S330p) supplemented with 2% FBS. After adding 50 μl of the prepared dilutions to the cells, the incubation mixture contained the final concentrations of the test substances and no more than 1% DMSO. The plates were Incubated at 37° C. for 72 h. After incubation, 15 μl of Alamar Blue vital dye (ThermoFisher, # DAL1100) was added to each well. The plates were shaken on an orbital shaker (Biosan, Latvia) and further incubated for 3-5 h in a CO2 incubator (Thermo Forma, USA). Number of living cells was estimated using a plate spectrophotometer Infinite M200Pro, (Tecan, Switzerland) measuring fluorescent signal at the excitation wavelength (λEx) of 540 nm and emission wavelength (λEm) of 590 nm.
IC50 was calculated using Magellan 7.2 software (Tecan, Switzerland) approximating experimental points by four-parameter logistic model with the optimization by Levenberg-Marquardt. […]
(§6) The ratio between IC50 for cell lines containing wild-type EGFR (A549) and IC50 for cell lines containing target mutation L828R/T790M (H1975) is the selectivity index (SI): […]

[4] = tested on: A549 (lung adenocarcinoma, WT); assay: Antiproliferative activity on A549 cells (Alamar Blue); format: cell-based; details: Homo sapiens, antiproliferative test
Protocol: as §4, §5
IC50 was calculated using Magellan 7.2 software (Tecan, Switzerland) approximating experimental points by four-parameter logistic model with the optimization by Levenberg-Marquardt.
as §6

[5] = Chemical stability in human blood plasma; format: in vitro ADME; details: pooled human blood plasma; 10 μm; 4 hours at 37° C.; substance amount remaining
Protocol: 2) Determination of chemical stability in human blood plasma.
Determination of stability in human blood plasma was performed using pooled human blood plasma taken from ten healthy donors. The initial candidate solution (10 mM in DMSO) was diluted with pooled blood plasma to a concentration of 10 μm (test solution). The test solution was incubated in a dry block thermostat for 4 hours at 37° C. HPLC with Agilent 1200 liquid chromatography system (Agilent, USA) was employed to determine peak areas of the compounds in test samples, said peak areas corresponding to the initial test time (prior to incubation) and the final test time (after incubation in a dry block thermostat for 4 hours at 37° C.), proteins were preliminarily precipitated with acetonitrile. We used gradient elution (1 mL/min flow rate). Substance amount in % in a sample after thermostatting was determined.
The stability of the compounds was estimated.

[6] = tested on: HepG2 cells; assay: General cytotoxicity on HepG2 cells; format: cell-based; details: therapeutic index, CC50 HepG2 / IC50 H1975
Protocol: (§7) The CC50 values were determined in the test for General cytotoxicity on HepG2 cells (rhepatocellular carcinoma, ATCC® HB-8065™) (Table 16). The cells were subcultured in DMEM medium (PanEco, S420p) supplemented with 10% FBS (Gibco, #16140071) for at least 1 passage after thawing, washed with PBS and passaged in 96-well culture plates (3599, Corning) at a concentration of 2*10^4 cells/100 μL per well, and incubated for 16-18 h. The test substances were titrated in DMSO and transferred to DMEM (PanEco, S420p) medium supplemented with 2% FBS, added to the cells and incubated at 37° C. for 72 hours; viability of the cells was then assessed using Alamar Blue dye (ThermoFisher, # DAL1100). CC50 was determined similarly to IC50.
(§8) The ratio between CC50 for HepG2 cell line and IC50 for H1975 cell line is the therapeutic index (TI): […]

[7] = General cytotoxicity on HepG2 cells; format: cell-based; details: human; general cytotoxicity, HepG2 cells, 72 hours, average of several tests
Protocol: as §7, §8

[8] = average values obtained in several tests, Table 16, read-out: H1975 (DM) IC50
[9] = antiproliferative test, Table 15, read-out: IC50 H1975 (DM)

Compound	IC50 [1]	SI, IC50(WT)/IC50(DM) [1]	IC50 [2]	IC50 [3, 8]	IC50 [3, 9]	IC50 [4]	Stability in blood plasma, % [5]	SI IC50(A549)/IC50(DM) [3]	TI, CC50/IC50 [6]	CC50 at 72 h [7]
C=CC(=O)Nc1cc(Nc2nccc(C(=O)c3ccc(N4CCCCC4)cc3OC)n2)c(OC)cc1N(C)CCN(C)C [EGFR_3365_122, N-(2-((2-(dimethylamino)ethyl)(methyl)amino)-4-methoxy-5-((4-(2-methoxy-4-(piperidin-1-yl)benzoyl)pyrimidin-2-yl)amino)phenyl)acrylamide]	2.67 nM	7.35	19.7 nM	2.21 nM	2.21 nM	5.31 µM	92.2%	2398	5710	12.6 µM
C=CC(=O)Nc1cc(Nc2nccc(C(=O)c3ccc(N4CCC[C@@H](OC)C4)cc3)n2)c(OC)cc1N(C)CCN(C)C [EGFR_3365_111, (R)-N-(2-((2-(dimethylamino)ethyl)(methyl)amino)-4-methoxy-5-((4-(4-(3-methoxypiperidin-1-yl)benzoyl)pyrimidin-2-yl)amino)phenyl)acrylamide]	2.33 nM	79.88	186 nM	36.6 nM	36.6 nM	11.2 µM	100.0%	307	742	27.1 µM
C=CC(=O)Nc1cc(Nc2nccc(C(=O)c3ccc(OCCOC)cc3)n2)c(OC)cc1N(C)CCN(C)C [EGFR_3365_92, N-(2-((2-(dimethylamino)ethyl)(methyl)amino)-4-methoxy-5-((4-(4-(2-methoxyethoxy)benzoyl)pyrimidin-2-yl)amino)phenyl) acrylamide]	7.57 nM	17.56	133 nM		35.1 nM	22.9 µM	99.1%	652		
C=CC(=O)Nc1cc(Nc2nccc(C(=O)c3ccc(N4CCCC4=O)cc3)n2)c(OC)cc1N(C)CCN(C)C [EGFR_3365_91]	4.55 nM	23.60	107 nM		> 200 nM	31.6 µM	95.4%	<158		
C=CC(=O)Nc1cc(Nc2nccc(C(=O)c3ccc(N4CCC[C@H](OC)C4)cc3)n2)c(OC)cc1N(C)CCN(C)C [EGFR_3365_110, (S)-N-(2-((2-(dimethylamino)ethyl)(methyl)amino)-4-methoxy-5-((4-(4-(3-methoxypiperidin-1-yl)benzoyl)pyrimidin-2-yl)amino)phenyl)acrylamide]	2.32 nM	42.20	97.7 nM	21.7 nM	21.7 nM	9.51 µM	95.7%	439	855	18.5 µM
C=CC(=O)Nc1cc(Nc2nccc(C(=O)c3ccc(N4CCC(N(C)C)CC4)cc3OC)n2)c(OC)cc1N(C)CCN(C)C [EGFR_3365_127, N-(2-((2-(dimethylamino)ethyl)(methyl)amino)-5-((4-(4-(4-(dimethylamino)piperidin-1-yl)-2-methoxybenzoyl)pyrimidin-2-yl)amino)-4-methoxyphenyl)acrylamide]	2.96 nM	8.29	24.5 nM		8.45 nM	> 10 µM		>166**		

Continued, in another order:

IC50 [1]	SI, IC50(WT)/IC50(DM) [1]	IC50 [2]	IC50 [3, 8]	IC50 [3, 9]	IC50 [4]	Stability in blood plasma, % [5]	Compound	SI IC50(A549)/IC50(DM) [3]	TI, CC50/IC50 [6]	CC50 at 72 h [7]
1.86 nM	10.62	19.8 nM					C=CC(=O)Nc1cc(Nc2nccc(C(=O)c3ccc(N4CCC(N)CC4)cc3OC)n2)c(OC)cc1N(C)CCN(C)C [EGFR_3365-126]			
1.75 nM	19.99	35 nM	29.5 nM	29.5 nM	11.8 µM	86.0%	C=CC(=O)Nc1cc(Nc2nccc(C(=O)c3ccc(OC4CC4)cc3)n2)c(OC)cc1N(C)CCN(C)C [EGFR_3365_116, N-(5-((4-(4-cyclopropoxybenzoyl)pyrimidin-2-yl)amino)-2-((2-(dimethylamino)ethyl)(methyl)amino)-4-methoxyphenyl)acrylamide]	400	749	22.1 µM
2.3 nM	36.55	84.2 nM	22.9 nM	22.9 nM	13.8 µM	99.3%	C=CC(=O)Nc1cc(Nc2nccc(C(=O)c3ccc(N4CCC(C#N)CC4)cc3)n2)c(OC)cc1N(C)CCN(C)C [EGFR_3365_97, N-(5-((4-(4-(4-cyanopiperidin-1-yl)benzoyl)pyrimidin-2-yl)amino)-2-((2-(dimethylamino)ethyl)(methyl)amino)-4-methoxyphenyl)acrylamide]	601	943	21.6 µM
1.86 nM	44.62	83.2 nM	13.7 nM	13.7 nM	14.5 µM	96.1%	C=CC(=O)Nc1cc(Nc2nccc(C(=O)c3ccc(N4CCC(OC)CC4)cc3)n2)c(OC)cc1N(C)CCN(C)C [EGFR_3365_98, N-(2-((2-(dimethylamino)ethyl)(methyl)amino)-4-methoxy-5-((4-(4-(4-methoxypiperidin-1-yl)benzoyl)pyrimidin-2-yl)amino)phenyl)acrylamide]	1065	1770	24.2 µM

Reference: patent US20200339544A1 (JOINT STOCK COMPANY "BIOCAD", priority 2017, published 2020)
